Reference: ChEMBL document CHEMBL4311992, “Discovery of 3-(((9H-purin-6-yl)amino)methyl)-4,6-dimethylpyridin-2(1H)-one derivatives as novel tubulin polymerization inhibitors for treatment of cancer” (Eur J Med Chem, 2019)
Active and inactive are the calls of the source. No cut-off for these calls is given here.

Tests used:
[1] = target: Serine/threonine-protein kinase mTOR (Homo sapiens) (UniProt P42345); assay: Inhibition of recombinant full-length human mTOR assessed as residual activity at 10 uM measured after 40 mins in presence of [gamma33P]ATP by scintillation counting method
[2] = target: Dual specificity tyrosine-phosphorylation-regulated kinase 1B (Homo sapiens) (UniProt Q9Y463); assay: Inhibition of recombinant full-length human DYRK1B assessed as residual activity at 10 uM using RRRFRPASPLRGPPK as substrate measured after 40 mins in presence of [gamma33P]ATP by scintillation counting method
[3] = target: [Pyruvate dehydrogenase (acetyl-transferring)] kinase isozyme 4, mitochondrial (Homo sapiens) (UniProt Q16654); assay: Inhibition of recombinant full-length human PDHK4 assessed as residual activity at 10 uM using KKKYHGHSMSDPGVSYRT as substrate measured after 40 mins in presence of [gamma33P]ATP by scintillation counting method
[4] = test system: HCT-116; assay: Induction of apoptosis in human HCT116 cells assessed as decrease in Bcl2 expression up to 200 nM measured after 48 hrs by Western blot analysis; assay type: functional, cell-based
[5] = test system: Glycogen synthase kinase-3 beta (Homo sapiens), P49841 [UNDEFINED MUTATION]; assay: Inhibition of recombinant human GSK3beta H350L mutant (2 to end residues) assessed as residual activity at 10 uM using phospho GS2 peptide as substrate measured after 40 mins in presence of [gamma33P]ATP by scintillation counting method
[6] = target: Protein-tyrosine kinase 2-beta (Homo sapiens) (UniProt Q14289); assay: Inhibition of recombinant full-length human Pyk2 assessed as residual activity at 10 uM using poly(Glu, Tyr) 4:1 as substrate measured after 40 mins in presence of [gamma33P]ATP by scintillation counting method
[7] = target: Macrophage colony-stimulating factor 1 receptor (Homo sapiens) (UniProt P07333); assay: Inhibition of recombinant human FMS (538 to end residues) assessed as residual activity at 10 uM using KKKSPGEYVNIEFG as substrate measured after 40 mins in presence of [gamma33P]ATP by scintillation counting method
[8] = test system: Fibroblast growth factor receptor 1 (Homo sapiens), P11362 [V561M]; assay: Inhibition of recombinant human FGFR1 V561M mutant (456 to 765 residues) assessed as residual activity at 10 uM using GGEEEEYFELVKKKK as substrate measured after 40 mins in presence of [gamma33P]ATP by scintillation counting method
[9] = target: Serine/threonine-protein kinase pim-3 (Homo sapiens) (UniProt Q86V86); assay: Inhibition of recombinant human Pim3 (2 to end residues) assessed as residual activity at 10 uM using RSRHSSYPAGT as substrate measured after 40 mins in presence of [gamma33P]ATP by scintillation counting method
[10] = Toxicity in nude BALB/c mouse assessed as change in albumin level at 40 to 80 mg/kg, po once daily for 4 weeks measured post-last dose; assay type: organism-based; conditions: in vivo, 672 h
[11] = test system: Discoidin domain-containing receptor 2 (Homo sapiens), Q16832 [UNDEFINED MUTATION]; assay: Inhibition of recombinant human DDR2 S642A mutant (467 to end residues) assessed as residual activity at 10 uM using KKSRGDYMTMQIG as substrate measured after 40 mins in presence of [gamma33P]ATP by scintillation counting method
[12] = test system: Tyrosine-protein kinase ABL1 (Homo sapiens), P00519 [H396P]; assay: Inhibition of recombinant human ABL H396P mutant (27 to end residues) assessed as residual activity at 10 uM using EAIYAAPFAKKK as substrate measured after 40 mins in presence of [gamma33P]ATP by scintillation counting method
[13] = test system: Protein kinase C eta type (Homo sapiens), P24723 [UNDEFINED MUTATION]; assay: Inhibition of recombinant human PKCeta V108L/G109R/L392Q mutant (2 to end residues) assessed as residual activity at 10 uM using ERMRPRKRQGSVRRRV as substrate measured after 40 mins in presence of [gamma33P]ATP by scintillation counting method
[14] = species on record: Homo sapiens; assay: Inhibition of human activated Tec F514V mutant (174 to end residues) using EFPIYDFLPAKKK as substrate measured after 40 mins in presence of [gamma33P]ATP by scintillation counting method; set-up: scale not given: the % may be the effect or the level left
[15] = target: Serine/threonine-protein kinase VRK2 (Homo sapiens) (UniProt Q86Y07); assay: Inhibition of human VRK2 (1 to 336 residues) using casein as substrate measured after 40 mins in presence of [gamma33P]ATP by scintillation counting method; set-up: scale not given: the % may be the effect or the level left
[16] = target: CDK12/Cyclin K (Homo sapiens) (UniProt O75909+Q9NYV4); assay: Inhibition of recombinant full length human CDK12/cyclinK assessed as residual activity at 10 uM using RSRSRSRSRSRSRSR as substrate measured after 120 mins in presence of [gamma33P]ATP by scintillation counting method; assay type: protein-complex assay
[17] = target: Serine/threonine-protein kinase WNK3 (Homo sapiens) (UniProt Q9BYP7); assay: Inhibition of human WNK3 (1 to 434 residues) using myelin basic protein as substrate measured after 40 mins in presence of [gamma33P]ATP by scintillation counting method; set-up: scale not given: the % may be the effect or the level left
[18] = target: Tyrosine-protein kinase JAK2 (Homo sapiens) (UniProt O60674); assay: Inhibition of recombinant human JAK2 (808 to end residues) assessed as residual activity at 10 uM using KTFCGTPEYLAPEVRREPRILSEEEQEMFRDFDYIADWC as substrate measured after 40 mins in presence of [gamma33P]ATP by scintillation counting method
[19] = test system: Mast/stem cell growth factor receptor Kit (Homo sapiens), P10721 [V560G]; assay: Inhibition of recombinant human c-Kit V560G mutant (544 to end residues) assessed as residual activity at 10 uM using GGMEDIYFEFMGGKKK as substrate measured after 40 mins in presence of [gamma33P]ATP by scintillation counting method
[20] = target: Ribosomal protein S6 kinase alpha-4 (Homo sapiens) (UniProt O75676); assay: Inhibition of recombinant human MSK2 (2 to end residues) assessed as residual activity at 10 uM using GRPRTSSFAEGKK as substrate measured after 40 mins in presence of [gamma33P]ATP by scintillation counting method
[21] = target: Homeodomain-interacting protein kinase 3 (Homo sapiens) (UniProt Q9H422); assay: Inhibition of recombinant human HIPK3 (161 to 562 residues) assessed as residual activity at 10 uM using myelin basic protein as substrate measured after 40 mins in presence of [gamma33P]ATP by scintillation counting method
[22] = test system: PI3-kinase p110-alpha/p85-alpha (Homo sapiens), P27986+P42336 [H1047R]; assay: Inhibition of recombinant full-length human PI3K p110alpha/p85alpha H1047R mutant assessed as residual activity at 10 uM using phosphatidylinositol-4, 5-bisphosphate as substrate measured after 40 mins by fluorescence assay; assay type: protein-complex assay

Sequence of Mast/stem cell growth factor receptor Kit (Homo sapiens), P10721 [V560G] (P10721 whole entry V560G): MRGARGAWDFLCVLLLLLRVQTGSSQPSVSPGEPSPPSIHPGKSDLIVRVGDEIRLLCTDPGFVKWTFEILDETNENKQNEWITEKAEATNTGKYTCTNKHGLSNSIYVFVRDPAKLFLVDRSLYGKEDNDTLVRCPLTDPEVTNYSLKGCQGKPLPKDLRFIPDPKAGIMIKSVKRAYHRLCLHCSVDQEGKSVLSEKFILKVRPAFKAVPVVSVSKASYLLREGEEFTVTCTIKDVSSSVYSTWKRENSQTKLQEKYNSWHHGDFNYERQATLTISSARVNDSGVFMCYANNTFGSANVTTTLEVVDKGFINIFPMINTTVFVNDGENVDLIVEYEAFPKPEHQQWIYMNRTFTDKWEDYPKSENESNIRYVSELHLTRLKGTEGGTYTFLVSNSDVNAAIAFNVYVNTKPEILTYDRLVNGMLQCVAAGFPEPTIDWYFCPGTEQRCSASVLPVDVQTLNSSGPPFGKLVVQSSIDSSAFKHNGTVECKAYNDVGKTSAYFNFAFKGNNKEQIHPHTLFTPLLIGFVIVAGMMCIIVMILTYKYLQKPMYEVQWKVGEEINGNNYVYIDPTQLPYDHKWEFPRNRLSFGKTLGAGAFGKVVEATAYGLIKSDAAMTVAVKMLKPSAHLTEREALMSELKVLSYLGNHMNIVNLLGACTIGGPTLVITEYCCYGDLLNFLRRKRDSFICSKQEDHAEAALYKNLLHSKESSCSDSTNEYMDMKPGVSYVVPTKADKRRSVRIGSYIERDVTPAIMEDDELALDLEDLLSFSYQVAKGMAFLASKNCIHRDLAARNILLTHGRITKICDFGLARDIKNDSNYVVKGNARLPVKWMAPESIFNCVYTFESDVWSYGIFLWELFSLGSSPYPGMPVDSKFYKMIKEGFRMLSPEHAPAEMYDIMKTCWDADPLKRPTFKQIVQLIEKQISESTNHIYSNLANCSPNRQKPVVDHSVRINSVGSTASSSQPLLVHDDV
Sequence of Discoidin domain-containing receptor 2 (Homo sapiens), Q16832 [UNDEFINED MUTATION] (Q16832 whole entry, looked up, stated change not applied, the tested form may be a part): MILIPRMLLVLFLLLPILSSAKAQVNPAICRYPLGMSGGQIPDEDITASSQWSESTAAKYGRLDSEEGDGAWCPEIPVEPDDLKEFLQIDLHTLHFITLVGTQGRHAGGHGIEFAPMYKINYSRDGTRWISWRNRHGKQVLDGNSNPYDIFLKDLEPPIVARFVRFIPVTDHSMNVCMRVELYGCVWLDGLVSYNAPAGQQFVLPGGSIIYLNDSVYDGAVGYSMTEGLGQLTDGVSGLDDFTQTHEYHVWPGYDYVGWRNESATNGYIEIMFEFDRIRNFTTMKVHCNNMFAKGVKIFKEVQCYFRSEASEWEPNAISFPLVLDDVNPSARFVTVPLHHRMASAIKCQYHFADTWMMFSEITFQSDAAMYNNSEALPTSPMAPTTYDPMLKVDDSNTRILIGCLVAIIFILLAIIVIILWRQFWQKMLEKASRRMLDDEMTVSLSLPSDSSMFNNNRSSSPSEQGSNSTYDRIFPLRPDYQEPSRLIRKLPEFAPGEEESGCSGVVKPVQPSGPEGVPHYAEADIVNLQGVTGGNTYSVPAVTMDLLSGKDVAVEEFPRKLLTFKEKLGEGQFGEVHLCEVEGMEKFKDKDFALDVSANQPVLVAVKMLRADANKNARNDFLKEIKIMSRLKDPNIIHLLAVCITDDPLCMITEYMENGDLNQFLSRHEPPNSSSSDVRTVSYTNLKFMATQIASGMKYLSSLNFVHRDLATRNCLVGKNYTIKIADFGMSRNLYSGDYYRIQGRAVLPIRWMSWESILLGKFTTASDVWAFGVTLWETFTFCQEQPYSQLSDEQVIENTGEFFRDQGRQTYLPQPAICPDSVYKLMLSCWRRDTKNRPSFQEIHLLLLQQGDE
Sequence of Ribosomal protein S6 kinase alpha-4 (Homo sapiens) (O75676 whole entry, looked up, the tested form may be a part): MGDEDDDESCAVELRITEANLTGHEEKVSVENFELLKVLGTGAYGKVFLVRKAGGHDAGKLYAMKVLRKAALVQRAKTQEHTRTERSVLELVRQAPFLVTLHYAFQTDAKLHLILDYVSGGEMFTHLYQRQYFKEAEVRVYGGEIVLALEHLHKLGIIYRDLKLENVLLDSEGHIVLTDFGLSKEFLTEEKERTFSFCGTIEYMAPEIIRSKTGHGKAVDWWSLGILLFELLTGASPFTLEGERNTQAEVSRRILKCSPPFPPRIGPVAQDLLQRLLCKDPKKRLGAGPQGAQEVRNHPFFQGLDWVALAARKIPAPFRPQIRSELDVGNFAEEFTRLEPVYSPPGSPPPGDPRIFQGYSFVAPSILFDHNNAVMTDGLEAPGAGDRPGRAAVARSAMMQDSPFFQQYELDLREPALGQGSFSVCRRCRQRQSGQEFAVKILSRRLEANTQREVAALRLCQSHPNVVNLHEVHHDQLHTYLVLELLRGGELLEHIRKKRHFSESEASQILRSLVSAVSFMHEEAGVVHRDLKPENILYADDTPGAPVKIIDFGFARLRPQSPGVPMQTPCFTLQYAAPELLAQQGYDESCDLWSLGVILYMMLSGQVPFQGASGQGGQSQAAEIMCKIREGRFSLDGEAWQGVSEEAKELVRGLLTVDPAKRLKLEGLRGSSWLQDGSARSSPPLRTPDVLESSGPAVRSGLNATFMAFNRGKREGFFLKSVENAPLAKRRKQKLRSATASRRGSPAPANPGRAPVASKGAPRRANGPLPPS
Sequence of Serine/threonine-protein kinase VRK2 (Homo sapiens) (Q86Y07 whole entry, the tested form may be a part): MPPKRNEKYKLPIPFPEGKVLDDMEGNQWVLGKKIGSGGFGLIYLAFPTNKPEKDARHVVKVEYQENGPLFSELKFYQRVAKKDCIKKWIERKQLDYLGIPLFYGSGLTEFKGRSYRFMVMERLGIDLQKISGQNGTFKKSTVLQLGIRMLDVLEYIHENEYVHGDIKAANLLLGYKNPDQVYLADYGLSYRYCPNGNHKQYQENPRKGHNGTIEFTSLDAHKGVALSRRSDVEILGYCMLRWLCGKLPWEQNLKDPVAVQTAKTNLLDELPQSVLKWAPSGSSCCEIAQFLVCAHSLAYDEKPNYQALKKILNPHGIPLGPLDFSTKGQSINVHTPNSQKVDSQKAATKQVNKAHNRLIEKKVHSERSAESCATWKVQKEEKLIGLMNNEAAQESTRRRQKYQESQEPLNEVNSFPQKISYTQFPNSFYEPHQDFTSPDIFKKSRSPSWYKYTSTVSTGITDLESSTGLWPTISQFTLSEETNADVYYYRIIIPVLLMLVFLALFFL
Sequence of Glycogen synthase kinase-3 beta (Homo sapiens), P49841 [UNDEFINED MUTATION] (P49841 whole entry, looked up, stated change not applied): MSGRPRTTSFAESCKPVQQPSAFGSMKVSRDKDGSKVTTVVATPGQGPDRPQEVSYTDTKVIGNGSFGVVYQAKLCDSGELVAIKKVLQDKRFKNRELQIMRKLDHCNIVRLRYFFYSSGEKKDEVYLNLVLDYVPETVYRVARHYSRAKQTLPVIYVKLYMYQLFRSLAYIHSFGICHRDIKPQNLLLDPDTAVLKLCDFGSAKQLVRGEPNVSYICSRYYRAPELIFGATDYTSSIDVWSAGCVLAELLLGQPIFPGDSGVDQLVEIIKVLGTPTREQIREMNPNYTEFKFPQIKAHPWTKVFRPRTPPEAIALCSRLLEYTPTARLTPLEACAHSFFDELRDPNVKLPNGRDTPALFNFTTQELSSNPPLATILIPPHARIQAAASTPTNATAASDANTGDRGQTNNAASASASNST
Sequence of Dual specificity tyrosine-phosphorylation-regulated kinase 1B (Homo sapiens) (Q9Y463 whole entry, looked up): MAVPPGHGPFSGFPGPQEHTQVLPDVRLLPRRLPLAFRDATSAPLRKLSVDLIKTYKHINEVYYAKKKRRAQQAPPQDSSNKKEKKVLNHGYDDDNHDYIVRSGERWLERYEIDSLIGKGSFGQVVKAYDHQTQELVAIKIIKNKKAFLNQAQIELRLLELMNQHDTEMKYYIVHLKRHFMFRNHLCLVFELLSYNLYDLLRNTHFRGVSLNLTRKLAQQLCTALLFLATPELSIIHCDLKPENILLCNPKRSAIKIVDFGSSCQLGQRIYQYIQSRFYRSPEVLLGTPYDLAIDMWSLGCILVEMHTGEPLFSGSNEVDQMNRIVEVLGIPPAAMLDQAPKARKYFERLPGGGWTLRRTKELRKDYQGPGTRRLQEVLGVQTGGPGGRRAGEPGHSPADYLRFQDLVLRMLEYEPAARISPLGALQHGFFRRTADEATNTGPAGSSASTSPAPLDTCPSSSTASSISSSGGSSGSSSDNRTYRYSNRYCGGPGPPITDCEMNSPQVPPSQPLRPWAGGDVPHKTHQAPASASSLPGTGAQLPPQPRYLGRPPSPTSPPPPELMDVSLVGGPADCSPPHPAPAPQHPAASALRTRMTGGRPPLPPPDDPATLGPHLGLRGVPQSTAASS
Sequence of [Pyruvate dehydrogenase (acetyl-transferring)] kinase isozyme 4, mitochondrial (Homo sapiens) (Q16654 whole entry, looked up): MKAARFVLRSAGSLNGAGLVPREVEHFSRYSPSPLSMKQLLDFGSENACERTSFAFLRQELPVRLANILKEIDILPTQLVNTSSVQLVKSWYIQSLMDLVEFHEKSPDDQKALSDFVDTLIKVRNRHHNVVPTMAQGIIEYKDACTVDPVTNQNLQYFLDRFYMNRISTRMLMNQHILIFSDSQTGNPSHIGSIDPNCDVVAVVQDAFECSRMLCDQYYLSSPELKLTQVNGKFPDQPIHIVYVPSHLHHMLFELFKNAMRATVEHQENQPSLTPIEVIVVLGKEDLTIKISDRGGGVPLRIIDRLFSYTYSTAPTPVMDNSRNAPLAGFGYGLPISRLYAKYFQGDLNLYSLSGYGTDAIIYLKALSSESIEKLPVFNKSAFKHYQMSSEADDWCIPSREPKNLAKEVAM

What does the source list for `Cc1cc(C)c(CNc2nc(Cl)nc3c2ncn3C2CCCC2)c(=O)[nH]1`?
Activity [1]: 78.5%; Activity [2]: 100%; Activity [3]: 95%; Activity [4]: Active; Activity [5]: 112%; Activity [6]: 97%; Activity [7]: 102%; Activity [8]: 95.5%; Activity [9]: 107%; Activity [10]: Non-Toxic; Activity [11]: 97%; Activity [12]: 104%; Activity [13]: 98.5%; Activity [14]: 96.5%; Activity [15]: 102%; Activity [16]: 104%; Activity [17]: 136%; Activity [18]: 115%; Activity [19]: 95.5%; Activity [20]: 120%; Activity [21]: 106%; Activity [22]: 101%
